Reference: patent US20230117205A1, “B7-H4 ANTIBODY-DRUG CONJUGATES FOR THE TREATMENT OF CANCER” (SEAGEN INC., priority 2021, published 2023)

Assays:
[1] = system: Ovarian carcinoma PDX models; test: Ovarian carcinoma patient-derived xenograft models; format: in vivo, mice; settings: 3 mg/kg q7dx3; for % TGI: vs untreated
Protocol: Tumor size and body weight were measured twice weekly, and the study was terminated when tumors in the control group reached 1500 mm^3 or up to Day 28, whichever occurred first, or maximum up to Day 60.
Specifically, Stock mice were bilaterally implanted with fragments from one of the Champions TumorGraft® models representing human HR^+ BC or ovarian cancer. After the tumors reached 1000-1500 mm^3, they were harvested, and the tumor fragments were implanted subcutaneously (s.c.) in the left flank of the female study mice. Each animal was implanted with a specific passage lot and documented. Tumor growth was monitored twice a week using digital calipers, and the tumor volume (TV) was calculated using the formula (0.52×[length×width^2]). When the TV reached approximately 150-300 mm^3, animals were matched by tumor size and assigned into control (untreated) or treatment groups (n=3 animals/group). Each animal in the treatment groups was dosed with 3 mg/kg of ADC every seven days for three total doses (q7dx3). Tumor size and body weight were measured twice weekly, and the study was terminated when tumors in the control group reached 1500 mm^3 or up to Day 28, whichever occurred first, or maximum up to Day 60.
Inhibition of tumor growth was determined by calculating the percent TGI on the day at which animals in the control group were terminated (100%×[1−(final MTV−initial MTV of a treated group)/(final MTV−initial MTV of the control group)]). Treatment started on Day 0.

SKBR3 = test: ADCP with primary monocytes/macrophages; format: cell-based, human; settings: 2 independent donors
Protocol: The B7-H4-expressing cell line SKBR3 and primary monocytes/macrophages were used to evaluate SGN-B7H4V-mediated ADCP. […] Phagocytosis of opsonized cells was assessed by flow cytometry.
SKBR3 tumor cells were fluorescently labeled with PKH26 (PKH26 Red Fluorescent Cell Membrane Labeling Kit, Sigma-Aldrich #PKH26GL-1KT), according to manufacturer instructions: SKBR3 cells were harvested with Versene (Gibco #15040-066) for 10 minutes and washed once with PBS. Cell were resuspended in 1 mL Diluent C (included in the PKH26 Red Fluorescent Cell Membrane Labeling Kit, Sigma-Aldrich #PKH26GL-1KT). In a separate tube, 1 mL Diluent C was mixed with 4 μL PKH26 dye by pipetting up and down. The dye solution was transferred to resuspended cells, quickly mixed by pipetting up and down several times, and incubated at room temperature for 5 minutes. Labeling reaction was stopped by adding 2 mL FBS (0.05-0.2 EU/ml Endotoxin, R&D Systems #S11550H). Cells were then washed once with RPMI 1640 (Gibco #11875-093) containing 10% FBS. Cells were resuspended in PBS at concentration of 0.8×10^6 cells/mL and transferred (300 μL/well) to a 96-well U-bottom plate (Falcon #353227). […] Phagocytosis is reported as the PKH26 geometric mean fluorescence intensity (gMFI) of gated CD14+/CD45+ cells analyzed using Flowjo. […]

[2] = biological target: T1, recombinant human B7-H4 protein (Homo sapiens, UniProt Q7Z7D3); test: BLI binding to recombinant human B7-H4 (monovalent and bivalent formats); settings: mAb compared with ADC
T1 construct: B7-H4 extracellular domain Phe29-Ala258 with a C-terminal 10-His tag
T1 sequence (Q7Z7D3 29-258): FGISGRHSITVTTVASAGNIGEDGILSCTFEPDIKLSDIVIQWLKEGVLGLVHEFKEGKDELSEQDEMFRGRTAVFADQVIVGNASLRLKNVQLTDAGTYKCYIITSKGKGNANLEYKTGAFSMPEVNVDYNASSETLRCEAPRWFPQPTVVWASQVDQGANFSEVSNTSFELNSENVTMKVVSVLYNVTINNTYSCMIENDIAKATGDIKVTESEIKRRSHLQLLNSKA

[3] = system: MDA-MB-468 xenograft model; test: MDA-MB-468 xenograft, Study MDAMB468-6; format: in vivo, NSG mice; settings: 3 mg/kg, three weekly doses, i.p.
Protocol: Tumor volume was measured twice weekly until study day 80.
Female NSG mice were implanted with 1×10^6 MDA-MB-468 cells in 25% Matrigel H C (Corning #354248) subcutaneously. Once tumor volumes reached 100 mm^3, mice were randomized into treatment groups of 5 mice each and dosed with 0.3, 1, or 3 mg/kg every seven days for three total doses (q7dx3). Twenty-four hours prior to receiving each ADC dose, each animal was treated with 10 mg/kg hIVIG (Grifolds). Tumor volumes were measured twice per week, animals were euthanized when tumor volume reached 700-1000 mm^3. Stock concentrations of ADC were diluted to desired concentration (with 0.01% Tween20 in PBS) and injected i.p. into each treatment group

SGN-B7H4V: ADC of fully human IgG1 anti-B7-H4 mAb conjugated to monomethyl auristatin E (MMAE) via a protease-cleavable valine-citrulline linker (vedotin)
% TGI ([1]; Ovarian_1, Day 48): 110%
% TGI ([1]; Ovarian_2, Day 41): 103%
% TGI ([1]; Ovarian_3, Day 53): 84%
% TGI ([1]; Ovarian_4, Day 52): −57%
% TGI ([1]; Ovarian_5, Day 36): 83%
% TGI ([1]; Ovarian_6, Day 23): −33%
PDX models with tumor regression or tumor growth delay (e.g. TGI>50%) ([1]; ovarian carcinoma): 4/6
ADCP activity (SKBR3): ADCP activity above that seen with the positive control
binding affinities for hB7-H4 [2]: similar
anti-tumor activity (tumor volume) [3]: transient regression of tumor volumes in all mice
